Experiments:
[1] = system: duck salad; assay: Test B flood test duck salad; type: in vivo, Heteranthera limosa; details: Pre-emergence
Outline: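 Read-out is a visual response score from 0 (no effect) to 10 (complete control), assigned by comparison with untreated controls. Treatment was applied at the 2-leaf stage, and plants stayed in the greenhouse for twelve to sixteen days before scoring.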

[2] = system: wild oat; assay: Test E wild oat; type: in vivo, Avena fatua; details: Preemergence
[3] = system: giant foxtail; assay: Test B pre/postemergence giant foxtail; type: in vivo, Setaria faberii; details: for Giant foxtail plant response rating: scale of 0 to 10 where 0 is no effect and 10 is complete control
Outline: (§1)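 Test chemicals in a non-phytotoxic solvent mixture with surfactant were sprayed preemergence onto planted seeds and postemergence onto plants 2 to 18 cm tall (1- to 4-leaf stage). After twelve to sixteen days in a greenhouse, injury was visually rated against untreated controls from 0 (no effect) to 10 (complete control).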

[4] = system: Italian ryegrass; assay: Test E Italian ryegrass; type: in vivo, Lolium multiflorum; details: Preemergence
[5] = system: wheat; assay: Test B pre/postemergence wheat; type: in vivo, Triticum aestivum; details: for Wheat plant response rating: scale of 0 to 10 where 0 is no effect and 10 is complete control
Outline: as §1

[6] = system: crabgrass; assay: Test B pre/postemergence crabgrass; type: in vivo, Digitaria sanguinalis; details: for Crabgrass plant response rating: scale of 0 to 10 where 0 is no effect and 10 is complete control
Outline: as §1

[7] = system: blackgrass; assay: Test E blackgrass; type: in vivo, Alopecurus myosuroides; details: Preemergence
[8] = system: winter barley; assay: Test E winter barley; type: in vivo, Hordeum vulgare; details: Preemergence
[9] = system: winter wheat; assay: Test E winter wheat; type: in vivo, Triticum aestivum; details: Preemergence
[10] = system: green foxtail; assay: Test E green foxtail; type: in vivo, Setaria viridis; details: Preemergence
[11] = system: winter wheat; assay: Test E winter wheat; type: in vivo, Triticum aestivum; details: Postemergence, 0 to 100 scale, 0 is no effect, 100 is complete control
Outline: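 Postemergence: 60:40 sandy loam/greenhouse potting mix, 1- to 4-leaf stage. Formulation: solvent plus surfactant. Assessment: visual comparison with untreated controls at ~21–28 days.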

[12] = Rate 125 g/ha, 0 to 100 scale (0 no effect, 100 complete control)
[13] = Postemergence, Rate 125 g/ha, scale 0 to 10, 0 is no effect, 10 is complete control
[14] = Postemergence, Rate 250 g/ha, scale 0 to 10, 0 is no effect, 10 is complete control
[15] = Preemergence, Rate 62 g/ha, scale 0 to 10 (0 no effect, 10 complete control)
[16] = Rate 500 g/ha, Postemergence, scale 0 to 10, 0 no effect, 10 complete control

For `CC(C)N(C(=O)n1oc(=O)n(C(C)CCl)c1=O)c1ccc(F)cc1` (stereo not drawn) [Compound 367], the “Plant response rating, Ducksalad (0 to 10 scale, 0 is no effect, 10 is complete control)” value ([1]; Rate 62 g/ha, flood test species, visual evaluation after twelve to sixteen days) was 0, the “Ducksalad plant response rating” value ([1]; Rate 125 g/ha, flood test species, scale 0 to 10 where 0 is no effect and 10 is complete control) was 0 and the “Ducksalad plant response rating” value ([1]; Rate 250 g/ha, flood-test species, scale 0 to 10, 0 is no effect, 10 is complete control) was 0. The “Ducksalad plant response rating” value ([1]; Rate 500 g/ha, flood test species, scale 0 to 10 (0 no effect, 10 complete control)) was 0, the “Plant response rating, Wild oat” value [2, 12] was 55 and the “Plant response rating, Wild oat” value ([2]; Rate 250 g/ha, 0 to 100 scale) was 50. The “Plant response rating, Giant foxtail” value [3, 13] was 3, the “Plant response rating, Giant foxtail” value [3, 14] was 8 and the “Plant response rating, Giant foxtail” value [3, 15] was 10. For the same compound, the “Giant foxtail plant response rating (0 to 10 scale)” value ([3]; Preemergence, Rate 125 g/ha) was 10, the “Giant foxtail plant response rating” value ([3]; Preemergence, Rate 250 g/ha) was 10 and the “Giant foxtail plant response rating” value ([3]; Preemergence, Rate 500 g/ha) was 10. For the same compound, the “Giant foxtail plant response rating” value ([3]; Rate 62 g/ha, Postemergence) was 0, the “Plant response rating, Giant foxtail” value [3, 16] was 8 and the “Plant response rating, I. Ryegrass” value [4, 12] was 60. The “Plant response rating, I. Ryegrass” value ([4]; Rate 250 g/ha, 0 to 100 scale) was 60, the “Plant response rating, Wheat” value [5, 13] was 0 and the “Plant response rating, Wheat” value [5, 14] was 0. For the same compound, the “Plant response rating, Wheat” value [5, 15] was 0, the “Wheat plant response rating (0 to 10 scale)” value ([5]; Preemergence, Rate 125 g/ha) was 0 and the “Wheat plant response rating” value ([5]; Preemergence, Rate 250 g/ha) was 0. For the same compound, the “Wheat plant response rating” value ([5]; Preemergence, Rate 500 g/ha) was 0, the “Wheat plant response rating” value ([5]; Rate 62 g/ha, Postemergence) was 0 and the “Plant response rating, Wheat” value [5, 16] was 6. For the same compound, the “Plant response rating, Crabgrass” value [6, 13] was 2, the “Plant response rating, Crabgrass” value [6, 14] was 8 and the “Plant response rating, Crabgrass” value [6, 15] was 6. For the same compound, the “Crabgrass plant response rating (0 to 10 scale)” value ([6]; Preemergence, Rate 125 g/ha) was 9, the “Crabgrass plant response rating” value ([6]; Preemergence, Rate 250 g/ha) was 10 and the “Crabgrass plant response rating” value ([6]; Preemergence, Rate 500 g/ha) was 10. The “Crabgrass plant response rating” value ([6]; Rate 62 g/ha, Postemergence) was 0, the “Plant response rating, Crabgrass” value [6, 16] was 8 and the “Plant response rating, Blackgrass” value [7, 12] was 60. The “Plant response rating, Blackgrass” value ([7]; Rate 250 g/ha, 0 to 100 scale) was 30, the “Plant response rating, Barley (winter)” value [8, 12] was 20 and the “Plant response rating, Barley (winter)” value ([8]; Rate 250 g/ha, 0 to 100 scale, 0 no effect, 100 complete control) was 30. The “Plant response rating, Wheat (winter)” value [9, 12] was 60, the “Plant response rating, Wheat (winter)” value ([9]; Rate 250 g/ha, 0 to 100 scale) was 40 and the “Plant response rating, Green foxtail” value [10, 12] was 70. The “Plant response rating, Green foxtail” value ([10]; Rate 250 g/ha, 0 to 100 scale) was 50, the “Plant response rating, Wheat (winter)” value ([11]; Rate 125 g/ha) was 50 and the “Plant response rating, Wheat (winter)” value ([11]; Rate 250 g/ha) was 40.

— patent US6737383B1, “Herbicidal oxadiazolidines” (priority 1999, dated 2004)
